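Step 1: Grow cells in 96-well plates. Step 2: Expose to compound for 48 hours at 5 concentrations. Step 3: Interpolate endpoints linearly; if unreached, use highest concentration. GI50 = concentration required for 50% inhibition of growth.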 The source made the active and inactive calls. Rule as the data show it: active = GI50 up to about 1.1 µM and inactive = higher.
Columns and labels:
Assay in all cases: NCI-60 cell line screen, 48 h
SK-MEL-2 = tested on: SK-MEL-2
SF-295 = tested on: SF-295
786-0 = tested on: 786-0
DU-145 = tested on: DU-145
CCRF-CEM = tested on: CCRF-CEM
EKVX = tested on: EKVX
ACHN = tested on: ACHN
NCI-H23 = tested on: NCI-H23
HL-60 = tested on: HL-60
SK-MEL-5 = tested on: SK-MEL-5
CAKI-1 = tested on: CAKI-1
NCI/ADR-RES = tested on: NCI/ADR-RES
UACC-257 = tested on: UACC-257
SK-MEL-28 = tested on: SK-MEL-28
RPMI-8226 = tested on: RPMI-8226
HT-29 = tested on: HT-29
OVCAR-3 = tested on: OVCAR-3
MDA-MB-231 = tested on: MDA-MB-231
RXF 393 = tested on: RXF 393

Measured: GI50

CCOP(=O)(OCC)C(Cc1ccccc1)N=C(c1ccccc1)c1ccccc1 (configuration not stated)
inactive: SK-MEL-2 18.2 µM | SF-295 12.3 µM | 786-0 15.2 µM | DU-145 20.9 µM | CCRF-CEM 9.95 µM | EKVX 18 µM | ACHN 14.9 µM | NCI-H23 12.7 µM | HL-60 16.3 µM | SK-MEL-5 12.9 µM | CAKI-1 16.2 µM | NCI/ADR-RES 10.1 µM | UACC-257 13.7 µM | SK-MEL-28 17 µM | RPMI-8226 25.4 µM | HT-29 13.1 µM | OVCAR-3 14.5 µM

CCOC(=O)C1(Cc2ccc3c(c2)CCC3)Cc2cc3c(cc2C1=O)CCC3 (configuration not stated)
inactive: SK-MEL-2 > 100 µM | SF-295 48.3 µM | 786-0 > 100 µM | DU-145 75.5 µM | CCRF-CEM 11.9 µM | EKVX 97.5 µM | ACHN > 69.8 µM | NCI-H23 49.4 µM | HL-60 2.84 µM | SK-MEL-5 20.1 µM | MDA-MB-231 48.4 µM | CAKI-1 > 46.3 µM | NCI/ADR-RES 36 µM | UACC-257 31.3 µM | SK-MEL-28 > 100 µM | RPMI-8226 19.2 µM | HT-29 31.6 µM | OVCAR-3 > 100 µM

c1ccc2c(c1)ccc1nc(-c3ccc4c(c3)OCO4)c3c(c12)CCCC3
inactive: SK-MEL-2 23.2 µM | SF-295 12.2 µM | 786-0 26.1 µM | CCRF-CEM 25.9 µM | EKVX 37.1 µM | ACHN 20.8 µM | NCI-H23 13.8 µM | MDA-MB-231 4.48 µM | CAKI-1 45.4 µM | NCI/ADR-RES 17.7 µM | UACC-257 30.1 µM | SK-MEL-28 30.2 µM | RPMI-8226 15.5 µM | HT-29 9.48 µM | OVCAR-3 15.4 µM

COC(OC)C(O)C1OC=CC1n1cnc2c(N)ncnc21 (configuration not stated)
inactive: SK-MEL-2 > 100 µM | SF-295 > 100 µM | 786-0 > 100 µM | DU-145 > 100 µM | CCRF-CEM > 100 µM | EKVX > 100 µM | ACHN > 100 µM | NCI-H23 > 100 µM | SK-MEL-5 > 100 µM | MDA-MB-231 > 100 µM | CAKI-1 > 100 µM | NCI/ADR-RES > 100 µM | UACC-257 > 100 µM | RXF 393 13 µM | SK-MEL-28 > 100 µM | RPMI-8226 > 100 µM | HT-29 > 100 µM | OVCAR-3 > 100 µM

C(=N\N=C1NCCCCN1)/c1ccc2ccccc2c1
inactive: SK-MEL-2 21.9 µM | SF-295 21.3 µM | 786-0 23.1 µM | DU-145 67.3 µM | CCRF-CEM 33.7 µM | EKVX 46.7 µM | ACHN 45.4 µM | NCI-H23 76.7 µM | HL-60 23.3 µM | SK-MEL-5 17.4 µM | MDA-MB-231 31.4 µM | NCI/ADR-RES 98.2 µM | UACC-257 21.9 µM | RXF 393 22.8 µM | SK-MEL-28 21.3 µM | RPMI-8226 27.5 µM | HT-29 22.8 µM | OVCAR-3 46.8 µM

CC1(C)C2C=CC1(C)C1(CC2)OCCO1 (configuration not stated)
inactive: SK-MEL-2 > 100 µM | SF-295 > 100 µM | 786-0 > 100 µM | DU-145 > 100 µM | CCRF-CEM > 100 µM | ACHN > 100 µM | NCI-H23 > 100 µM | HL-60 > 100 µM | MDA-MB-231 > 100 µM | NCI/ADR-RES > 100 µM | UACC-257 > 100 µM | RXF 393 > 100 µM | SK-MEL-28 > 100 µM | RPMI-8226 > 100 µM | HT-29 > 100 µM | OVCAR-3 > 100 µM

O=C(O)c1nc2ccc(C(F)(F)F)cc2nc1NCc1ccc(Cl)c(Cl)c1
inactive: SK-MEL-2 12.5 µM | SF-295 17.4 µM | 786-0 15.9 µM | DU-145 17 µM | CCRF-CEM 23.4 µM | EKVX 15.8 µM | ACHN 15.4 µM | NCI-H23 17.7 µM | SK-MEL-5 21.4 µM | MDA-MB-231 16.8 µM | CAKI-1 19.2 µM | NCI/ADR-RES 22.2 µM | UACC-257 21.2 µM | SK-MEL-28 17.6 µM | RPMI-8226 27.7 µM | HT-29 15.2 µM | OVCAR-3 7.78 µM

COc1cc2c(cc1C)NC(=O)/C2=C/c1cccnc1
inactive: SK-MEL-2 16 µM | SF-295 12.5 µM | 786-0 16 µM | DU-145 12.3 µM | CCRF-CEM 7.01 µM | EKVX 18.3 µM | ACHN 11.9 µM | NCI-H23 9.86 µM | HL-60 4.04 µM | SK-MEL-5 11 µM | CAKI-1 10.1 µM | NCI/ADR-RES 12.1 µM | RXF 393 7.8 µM | SK-MEL-28 45.9 µM | HT-29 17.7 µM | OVCAR-3 12.3 µM

COc1ccc(CCn2ccc(=O)c(O)c2C)cc1OC
inactive: SF-295 5.77 µM | 786-0 5 µM | DU-145 12.4 µM | EKVX 24.4 µM | ACHN 5.26 µM | NCI-H23 27.9 µM | HL-60 32.2 µM | SK-MEL-5 13.5 µM | MDA-MB-231 1.4 µM | CAKI-1 2.48 µM | NCI/ADR-RES 7.45 µM | UACC-257 6.18 µM | RPMI-8226 34 µM | HT-29 18.5 µM

O=c1oc2ccccc2c(-c2ccc(O)cc2)c1Oc1ccc(Cl)cc1
inactive: SK-MEL-2 17.9 µM | SF-295 17 µM | 786-0 26.9 µM | DU-145 42.7 µM | CCRF-CEM 21.4 µM | EKVX 16.8 µM | ACHN 25.8 µM | NCI-H23 20.7 µM | SK-MEL-5 18.3 µM | MDA-MB-231 22.4 µM | CAKI-1 28.8 µM | NCI/ADR-RES 24.5 µM | UACC-257 28.2 µM | RXF 393 19.4 µM | SK-MEL-28 15.3 µM | RPMI-8226 20.7 µM | HT-29 20.1 µM | OVCAR-3 14.9 µM

Cc1n[nH]c(=O)n1/N=C/c1ccc(Cl)cc1
inactive: SF-295 46 µM | 786-0 > 100 µM | DU-145 47.2 µM | CCRF-CEM 31.1 µM | EKVX 13.3 µM | ACHN > 100 µM | NCI-H23 27.9 µM | CAKI-1 52.2 µM | NCI/ADR-RES 49.3 µM | UACC-257 81.8 µM | RXF 393 22.3 µM | SK-MEL-28 > 100 µM | RPMI-8226 > 100 µM | OVCAR-3 27.9 µM

Cc1c(O)c(=O)ccn1CCc1ccc(O)cc1
inactive: SF-295 24.3 µM | 786-0 6.32 µM | DU-145 24.9 µM | CCRF-CEM 10 µM | EKVX 20.4 µM | ACHN 13.9 µM | NCI-H23 35.7 µM | HL-60 33.5 µM | SK-MEL-5 21.3 µM | MDA-MB-231 2.2 µM | CAKI-1 4.52 µM | NCI/ADR-RES 8.71 µM | UACC-257 25.5 µM | SK-MEL-28 38.4 µM | RPMI-8226 14.7 µM | HT-29 20.4 µM | OVCAR-3 11.2 µM

NNC(=O)C1(NC(=O)c2ccccc2)C(c2ccccc2)C(c2ccccc2)=NN1c1ccccc1 (configuration not stated)
inactive: SK-MEL-2 41.5 µM | SF-295 24.5 µM | 786-0 50.5 µM | DU-145 72.6 µM | CCRF-CEM 8.99 µM | EKVX 42.3 µM | ACHN 35.5 µM | NCI-H23 54 µM | SK-MEL-5 30 µM | MDA-MB-231 66.8 µM | CAKI-1 15.6 µM | NCI/ADR-RES 32.1 µM | UACC-257 43.3 µM | RXF 393 14.5 µM | SK-MEL-28 90.4 µM | RPMI-8226 21.1 µM | OVCAR-3 18.1 µM

O=C(c1ccccc1)N1CCN(C(=S)NC2CCCCC2)C1=S
inactive: SK-MEL-2 4.58 µM | SF-295 20.9 µM | 786-0 21.8 µM | DU-145 21.8 µM | CCRF-CEM 12.2 µM | EKVX 16.1 µM | ACHN 24.3 µM | NCI-H23 15.9 µM | HL-60 21.9 µM | SK-MEL-5 17.4 µM | MDA-MB-231 7.03 µM | CAKI-1 24 µM | NCI/ADR-RES 17.7 µM | UACC-257 18.7 µM | SK-MEL-28 14.9 µM | HT-29 20.2 µM | OVCAR-3 15.6 µM

C[C@H]1CCCCC[C@@H]2CC(=O)CC2C(=O)CCC(=O)O1 (some centres not stated)
inactive: SF-295 > 100 µM | 786-0 > 100 µM | DU-145 > 100 µM | CCRF-CEM > 100 µM | EKVX > 100 µM | ACHN > 100 µM | NCI-H23 > 100 µM | HL-60 > 100 µM | SK-MEL-5 > 100 µM | MDA-MB-231 > 100 µM | NCI/ADR-RES 52.6 µM | UACC-257 > 100 µM | RXF 393 > 100 µM | SK-MEL-28 > 100 µM | RPMI-8226 > 100 µM | HT-29 > 100 µM | OVCAR-3 > 100 µM

C#CCCOC(=O)c1ccccc1OC(C)=O
inactive: SK-MEL-2 > 100 µM | SF-295 > 100 µM | 786-0 > 100 µM | DU-145 > 100 µM | CCRF-CEM > 100 µM | EKVX > 100 µM | ACHN > 100 µM | NCI-H23 > 100 µM | SK-MEL-5 > 100 µM | MDA-MB-231 > 100 µM | CAKI-1 > 100 µM | NCI/ADR-RES > 100 µM | UACC-257 > 100 µM | RXF 393 > 100 µM | RPMI-8226 > 100 µM | OVCAR-3 > 100 µM

O=C(CCCn1ccnc1[N+](=O)[O-])NCCn1ccnc1[N+](=O)[O-]
inactive: SK-MEL-2 > 100 µM | SF-295 > 100 µM | 786-0 > 100 µM | DU-145 > 100 µM | CCRF-CEM > 100 µM | EKVX > 100 µM | ACHN > 100 µM | NCI-H23 > 100 µM | HL-60 > 100 µM | SK-MEL-5 > 100 µM | CAKI-1 > 100 µM | NCI/ADR-RES > 100 µM | UACC-257 > 100 µM | SK-MEL-28 > 100 µM | RPMI-8226 > 100 µM | HT-29 > 100 µM | OVCAR-3 > 100 µM
